BigSolDB 2.1

O=C1NC23NC(=O)NC2(N1)C(=O)NC3=O (stereo not given)
solubility (mole fraction) (in 1,4-dioxane, 273.15 K): 0.000149 | solubility (mole fraction) (in 1,4-dioxane, 278.15 K): 0.000174 | solubility (mole fraction) (in 1,4-dioxane, 283.15 K): 0.000214 | solubility (mole fraction) (in 1,4-dioxane, 288.15 K): 0.000267 | solubility (mole fraction) (in 1,4-dioxane, 293.15 K): 0.000333 | solubility (mole fraction) (in 1,4-dioxane, 298.15 K): 0.000453 | solubility (mole fraction) (in 1,4-dioxane, 303.15 K): 0.000601 | solubility (mole fraction) (in 1,4-dioxane, 308.15 K): 0.000696 | solubility (mole fraction) (in 1,4-dioxane, 313.15 K): 0.000856 | solubility (mole fraction) (in 1,4-dioxane, 318.15 K): 0.00102 | solubility (mole fraction) (in THF, 273.15 K): 0.000553 | solubility (mole fraction) (in THF, 278.15 K): 0.000655 | solubility (mole fraction) (in THF, 283.15 K): 0.000783 | solubility (mole fraction) (in THF, 288.15 K): 0.000992 | solubility (mole fraction) (in THF, 293.15 K): 0.00121 | solubility (mole fraction) (in THF, 298.15 K): 0.00151 | solubility (mole fraction) (in THF, 303.15 K): 0.00192 | solubility (mole fraction) (in THF, 308.15 K): 0.00224 | solubility (mole fraction) (in THF, 313.15 K): 0.00274 | solubility (mole fraction) (in THF, 318.15 K): 0.00325 | solubility (mole fraction) (in acetone, 273.15 K): 5.58e-05 | solubility (mole fraction) (in acetone, 278.15 K): 6.73e-05 | solubility (mole fraction) (in acetone, 283.15 K): 7.84e-05 | solubility (mole fraction) (in acetone, 288.15 K): 9.4e-05 | solubility (mole fraction) (in acetone, 293.15 K): 0.000114 | solubility (mole fraction) (in acetone, 298.15 K): 0.000131 | solubility (mole fraction) (in acetone, 303.15 K): 0.000158 | solubility (mole fraction) (in acetone, 308.15 K): 0.00018 | solubility (mole fraction) (in acetone, 313.15 K): 0.000202 | solubility (mole fraction) (in acetone, 318.15 K): 0.000246 | solubility (mole fraction) (in acetonitrile, 273.15 K): 9e-06 | solubility (mole fraction) (in acetonitrile, 278.15 K): 1.15e-05 | solubility (mole fraction) (in acetonitrile, 283.15 K): 1.43e-05 | solubility (mole fraction) (in acetonitrile, 288.15 K): 1.72e-05 | solubility (mole fraction) (in acetonitrile, 293.15 K): 2.16e-05 | solubility (mole fraction) (in acetonitrile, 298.15 K): 2.75e-05 | solubility (mole fraction) (in acetonitrile, 303.15 K): 3.6e-05 | solubility (mole fraction) (in acetonitrile, 308.15 K): 4.4e-05 | solubility (mole fraction) (in acetonitrile, 313.15 K): 5.5e-05 | solubility (mole fraction) (in acetonitrile, 318.15 K): 6.79e-05 | solubility (mole fraction) (in ethanol, 273.15 K): 6.15e-05 | solubility (mole fraction) (in ethanol, 278.15 K): 7.48e-05 | solubility (mole fraction) (in ethanol, 283.15 K): 9.23e-05 | solubility (mole fraction) (in ethanol, 288.15 K): 0.000113 | solubility (mole fraction) (in ethanol, 293.15 K): 0.000136 | solubility (mole fraction) (in ethanol, 298.15 K): 0.00017 | solubility (mole fraction) (in ethanol, 303.15 K): 0.000214 | solubility (mole fraction) (in ethanol, 308.15 K): 0.000264 | solubility (mole fraction) (in ethanol, 313.15 K): 0.000322 | solubility (mole fraction) (in ethanol, 318.15 K): 0.000419 | solubility (mole fraction) (in ethyl acetate, 273.15 K): 2.59e-05 | solubility (mole fraction) (in ethyl acetate, 278.15 K): 3.38e-05 | solubility (mole fraction) (in ethyl acetate, 283.15 K): 4.59e-05 | solubility (mole fraction) (in ethyl acetate, 288.15 K): 6.9e-05 | solubility (mole fraction) (in ethyl acetate, 293.15 K): 9.2e-05 | solubility (mole fraction) (in ethyl acetate, 298.15 K): 0.000124 | solubility (mole fraction) (in ethyl acetate, 303.15 K): 0.000167 | solubility (mole fraction) (in ethyl acetate, 308.15 K): 0.000225 | solubility (mole fraction) (in ethyl acetate, 313.15 K): 0.000322 | solubility (mole fraction) (in ethyl acetate, 318.15 K): 0.000413 | solubility (mole fraction) (in ethylene glycol, 273.15 K): 0.00029 | solubility (mole fraction) (in ethylene glycol, 278.15 K): 0.000326 | solubility (mole fraction) (in ethylene glycol, 283.15 K): 0.00036 | solubility (mole fraction) (in ethylene glycol, 288.15 K): 0.000404 | solubility (mole fraction) (in ethylene glycol, 293.15 K): 0.000459 | solubility (mole fraction) (in ethylene glycol, 298.15 K): 0.000516 | solubility (mole fraction) (in ethylene glycol, 303.15 K): 0.000587 | solubility (mole fraction) (in ethylene glycol, 308.15 K): 0.000638 | solubility (mole fraction) (in ethylene glycol, 313.15 K): 0.00073 | solubility (mole fraction) (in ethylene glycol, 318.15 K): 0.000822 | solubility (mole fraction) (in isopropanol, 273.15 K): 0.000113 | solubility (mole fraction) (in isopropanol, 278.15 K): 0.000133 | solubility (mole fraction) (in isopropanol, 283.15 K): 0.000162 | solubility (mole fraction) (in isopropanol, 288.15 K): 0.000192 | solubility (mole fraction) (in isopropanol, 293.15 K): 0.000234 | solubility (mole fraction) (in isopropanol, 298.15 K): 0.000284 | solubility (mole fraction) (in isopropanol, 303.15 K): 0.000364 | solubility (mole fraction) (in isopropanol, 308.15 K): 0.000482 | solubility (mole fraction) (in isopropanol, 313.15 K): 0.000526 | solubility (mole fraction) (in isopropanol, 318.15 K): 0.000614 | solubility (mole fraction) (in methanol, 273.15 K): 0.00161 | solubility (mole fraction) (in methanol, 278.15 K): 0.00184 | solubility (mole fraction) (in methanol, 283.15 K): 0.00243 | solubility (mole fraction) (in methanol, 288.15 K): 0.00286 | solubility (mole fraction) (in methanol, 293.15 K): 0.00348 | solubility (mole fraction) (in methanol, 298.15 K): 0.00409 | solubility (mole fraction) (in methanol, 303.15 K): 0.0049 | solubility (mole fraction) (in methanol, 308.15 K): 0.00592 | solubility (mole fraction) (in methanol, 313.15 K): 0.00727 | solubility (mole fraction) (in methanol, 318.15 K): 0.00843 | solubility (mole fraction) (in n-propanol, 273.15 K): 2.56e-05 | solubility (mole fraction) (in n-propanol, 278.15 K): 3.13e-05 | solubility (mole fraction) (in n-propanol, 283.15 K): 3.83e-05 | solubility (mole fraction) (in n-propanol, 288.15 K): 4.65e-05 | solubility (mole fraction) (in n-propanol, 293.15 K): 6.12e-05 | solubility (mole fraction) (in n-propanol, 298.15 K): 8.12e-05 | solubility (mole fraction) (in n-propanol, 303.15 K): 0.000103 | solubility (mole fraction) (in n-propanol, 308.15 K): 0.000122 | solubility (mole fraction) (in n-propanol, 313.15 K): 0.000151 | solubility (mole fraction) (in n-propanol, 318.15 K): 0.00019 | solubility (mole fraction) (in toluene, 273.15 K): 3.2e-06 | solubility (mole fraction) (in toluene, 278.15 K): 4.3e-06 | solubility (mole fraction) (in toluene, 283.15 K): 5.4e-06 | solubility (mole fraction) (in toluene, 288.15 K): 6.1e-06 | solubility (mole fraction) (in toluene, 293.15 K): 8.4e-06 | solubility (mole fraction) (in toluene, 298.15 K): 1.05e-05 | solubility (mole fraction) (in toluene, 303.15 K): 1.28e-05 | solubility (mole fraction) (in toluene, 308.15 K): 1.5e-05 | solubility (mole fraction) (in toluene, 313.15 K): 1.95e-05 | solubility (mole fraction) (in toluene, 318.15 K): 2.6e-05 | solubility (mole fraction) (in water, 273.15 K): 5.92e-05 | solubility (mole fraction) (in water, 278.15 K): 7.18e-05 | solubility (mole fraction) (in water, 283.15 K): 9.34e-05 | solubility (mole fraction) (in water, 288.15 K): 0.000126 | solubility (mole fraction) (in water, 293.15 K): 0.000159 | solubility (mole fraction) (in water, 298.15 K): 0.000188 | solubility (mole fraction) (in water, 303.15 K): 0.000223 | solubility (mole fraction) (in water, 308.15 K): 0.00025 | solubility (mole fraction) (in water, 313.15 K): 0.000313 | solubility (mole fraction) (in water, 318.15 K): 0.000369
